Patent publication US20230348394A1, “COMPOSITIONS AND METHODS FOR TREATING MUSCULAR DYSTROPHIES” (The Regents of the University of California, priority 2020, published 2023)

Experiments:
[1] = Half-life analysis in PBS pH 7.4; type: physicochemical; conditions: PBS pH 7.4, 37° C.
Protocol: (§1) Half-life analysis was performed by Eurofins Panlabs Inc. using 1 μM of compound with a final DMSO concentration of 0.5%. PBS or plasma from CD-1 mice was pre-warmed to 37° C. for 5 mins before addition of the test compounds and continued incubation at 37° C. At 0, 30, 60, 120, 240, and 1440 mins an aliquot of solution containing compounds was mixed with acetonitrile/methanol, mixed, and centrifuged. The supernatants were used for HPLC-MS/MS analysis.

H2K mdx myotubes = experiment: Differentiation of mdx myotubes (fusion index, MYOG gene expression); type: cell-based, murine; conditions: mdx myotubes, 1, 5 and 10 μM
[2] = system: alpha-dystroglycan (α-DG); experiment: Immunoblot of total protein lysates, C2C12 myotubes; type: cell-based, murine; conditions: 5 μM, 48 hours
Protocol: (§2) Myotubes treated for 48 hrs were lysed using RIPA buffer (Thermo Fisher Scientific) containing Halt Protease Inhibitor Cocktail (Thermo Fisher Scientific). Cell lysates in RIPA buffer were rocked for 1 hr at 4° C. and centrifuged at 1,000 RPM for 30 mins at 4° C. The supernatant was collected, quantified for protein concentration using the DC protein assay (Bio-Rad), and normalized to 2 mg/ml in water and Laemmli sample buffer with a final concentration of 10% glycerol (Sigma-Aldrich), 5% beta-mercaptoethanol (Sigma-Aldrich), 3% sodium dodecyl sulfate (Sigma-Aldrich), and 0.05% bromophenol blue (Sigma-Aldrich). For SDS-PAGE, samples were heated to 95° C. for 2 mins before loading 40 μg onto 4-12% tris-glycine or bis-tris polyacrylamide gels (Novex), electrophoresed for 2 hrs at 100 volts at RT, and transferred to a nitrocellulose membrane for 2 hrs at 100 volts at 4° C. Ponceau S staining was performed to visualize protein loading and verify protein transfer. […] Autoradiography films were developed using a SRX-101A tabletop processor (Konica Minolta), scanned to a digital file, and analyzed by densitometry of bands using ImageJ version 1.51 s. […]

SSPN protein = experiment: Sarcospan immunoblot of H2K mdx myotubes; type: cell-based, murine; conditions: 2.5 to 10 μM, 48 hours
Protocol: as §2, with “(Sigma-Aldrich).” for “(Sigma-Aldrich). For SDS-PAGE, samples were heated to 95° C. for 2 mins before loading 40 μg onto 4-12% tris-glycine or bis-tris polyacrylamide gels (Novex), electrophoresed for 2 hrs at 100 volts at RT, and transferred to a nitrocellulose membrane for 2 hrs at 100 volts at 4° C. Ponceau S staining was performed to visualize protein loading and verify protein transfer.”
After excluding compounds that were unstable in solution or that produced highly variable results, nine compounds remained. […] To determine if the increase in SSPN mRNA was also evident at the protein level, we treated mdx myotubes with 2.5 to 10 μM of OT-9, PC1-36, and PC1-42 and analyzed total protein lysates by immunoblotting with SSPN antibodies.

[3] = Half-life analysis in CD-1 mouse plasma; type: in vitro ADME, CD-1 mice; conditions: 37° C.
Protocol: as §1

- half-life at 1 μM [1]: 0.817 h
- half-life at 1 μM [3]: 7.7 h
SMILES: CCN(CC)c1ccc2cc(C(=O)Nc3ccc(C(=O)N4CCCCCC4)cc3)c(=O)oc2c1 [OT-9]
- MYOG gene expression (H2K mdx myotubes): slight increase
- fusion index (H2K mdx myotubes): slight increase
- increase of core α-DG in total protein lysates [2]: 1.5 fold
- levels of glycosylated α-DG in total protein lysates [2]: did not increase levels of glycosylated α-DG
- increase of SSPN protein levels (SSPN protein): 1.5 fold
